Results published in US12054477B2, “Prodrug of pyrrolidone derivatives as glucokinase activator” (HUA MEDICINE (SHANGHAI) LTD., priority 2021, dated 2024).
Like-named read-outs stand apart in the source and are kept apart here.

How the values were obtained:
[1] = tested on: C57BL/6J mice; experiment: Plasma insulin levels during OGTT; format: in vivo; details: for Insulin levels at 0 min vs vehicle control group and HMS5552-40 mg/kg group: 0 min (pre-glucose); for Insulin levels at 15 min vs vehicle control group / Insulin levels at 15 min vs corresponding groups of HMS5552: 15 min post-glucose
Description: (§1) 104 C57BL/6J mice were randomly divided into 13 groups according to body weight, 8 mice per group. The first group were administered with vehicle solvent (5 mL/kg, PO) as the control group, other groups were administered with corresponding concentration of test compounds (5 mL/kg, PO). […] The oral glucose tolerance test (OGTT) was performed 1 hour after administration of test compounds. Blood glucose (BG) were measured at −60 min (pre-dose), 0 min (pre-glucose), 15 min, 30 min, 60 min and 120 min after glucose treatment. Blood samples (40 μl) were collected from tail veins at 0 min (pre-glucose), and 15 min (post-glucose) to separate plasma for insulin detection.
(§2) All data was transferred into an Excel spreadsheet. Blood glucose was expressed in mg/dL. All values were expressed as Mean±SEM. The significance of the differences between groups were evaluated by one-way ANOVA or two-way ANOVA followed by Dunnett's multiple comparisons test or Tukey's multiple comparisons test using GraphPad Prism 8. A p value of less than 0.05 is considered statistically significant.

[2] = Simulated metabolic test of compounds in Human Intestine S9; format: in vitro ADME; details: for Remaining of Test Compound (%): HIS9 0.5 mg/mL, 37° C.
Description: Preparation of Phosphate Buffer (PB): Dissolve 73.21 g K2TIPO4·3H2O (AR grade) and 10.78 g KH2PO4 (AR grade) in ultra-pure water to make the final volume to 4000 mL and the final concentration to 100 mM. The pH of the final test solution was adjusted to pH 7.40±0.10 with H3PO4/KOH.
An Apricot automation workstation was used to add 50 μL/well of HIS9 solution to the corresponding wells of all reaction plates (blank, T0, T5, T15, T30, T45, T60).
Using an Apricot automation workstation, 2 μL/well of test compound working solution was added to the corresponding wells of all 96-well reaction plates except the blank (T0, T5, T15, T30, T45, T60).
An Apricot automation workstation was used to add 48 μL/well of PB to the corresponding wells of every reaction plate (Blank, T0, T5, T15, T30, T45, T60) to start the reaction.
The reaction plates were incubated at 37° C., and timer was started. An Apricot automation workstation was used to add 300 μL/well of stop solution (cold acetonitrile containing 200 ng/mL tolbutamide (internal standard)) to the corresponding wells of each reaction plate at its appropriate end time point to terminate the reaction.
Each plate was sealed and shaken for 10 minutes. After shaking, each plate was centrifuged at 4000 rpm and 4° C. for 20 minutes. After centrifugation, 100 μL of supernatant was transferred from each reaction plate to its corresponding bioanaylsis plate, and mixed well with 300 μL ultra-pure water.

[3] = for Remaining of Test Compound (%): SIF pH about 6.80, 37° C., 2 μM
Description: Preparation of Simulated Intestinal Fluid (SIF): Dissolve 0.136 g KH2PO4 and 0.2 g pancreatin with water and make up the final volume to 20 mL. The pH of the test solution was about 6.80±0.05.
(§3) Then 200 μL of supernatant was pipetted and mixed completely again with 400 μL of cold acetonitrile containing 200 ng/mL tolbutamide (internal standard). • 7) All samples were centrifuged at 4000 rpm, 4° C. for 20 min. • 8) 60 μL of supernatant was pipetted and mixed with 180 μL of ultra-pure water, and the mixture was mixed completely for LC-MS/MS analysis.

[4] = Pharmacokinetic studies in male SD rats (IV bolus and gavage); details: rat, in vivo
Description: Samples were placed on wet ice until centrifugation (within 30 min). […] Supernatant plasma was pipetted, then quickly frozen over dry ice and kept at −60° C. or lower temperature until LC-MS/MS analysis.

[5] = Stability test of compounds in Simulated Gastric Fluid (SGF); format: in vitro ADME; details: for Stability in SGF (in words): 24 hours; for Remaining of Test Compound (%): SGF pH about 1.20, 37° C., 2 μM
Description: The pH of the test solution was about 1.20±0.05.
as §3

[6] = tested on: C57BL/6J mice; experiment: Oral glucose tolerance test (OGTT), blood glucose; format: in vivo; details: for AUC0-120min of blood glucose vs vehicle control group / BG values after glucose treatment vs HMS5552-40 mg/kg group / BG values after glucose treatment vs vehicle control group / AUC0-120min of blood glucose vs corresponding groups of HMS5552: OGTT; for AUC0-120min of blood glucose vs vehicle control group: all low, middle, high dose groups; for AUC0-120min of blood glucose vs vehicle control group / BG values after glucose treatment vs HMS5552-40 mg/kg group / BG values after glucose treatment vs vehicle control group / AUC0-120min of blood glucose vs corresponding groups of HMS5552 / BG values at 0 min (pre-glucose) vs vehicle control group: PO; for BG values after glucose treatment vs HMS5552-40 mg/kg group: high dose group (Compound 3 49.1, Compound 6 46.1, Compound 7 48.6 mg/kg); for BG values after glucose treatment vs vehicle control group: high dose group (HMS5552 40 mg/kg; Compound 3 49.1 mg/kg); for AUC0-120min of blood glucose vs corresponding groups of HMS5552: middle and high dose levels (equimolar to 15 and 40 mg/kg HMS5552); for BG values at 0 min (pre-glucose) vs vehicle control group: all treatment groups, 1 hour after administration
Description: as §1, §2

[7] = tested on: Caco-2 cells; experiment: Bi-directional permeability test using Caco-2 cells; details: for The average Apparent Permeability Papp A→B: 2 hours, pH 7.40
[8] = high dose (Compound 3 49.1, Compound 6 46.1, Compound 7 48.6 mg/kg)
[9] = middle dose (Compound 3 18.4, Compound 7 18.2 mg/kg)
[10] = Caco-2, Compound 3 concentration 2.00 μM
[11] = Caco-2, Compound 3 concentration 10.0 μM
[12] = Caco-2, Compound 3 concentration 30.0 μM
[13] = high dose (Compound 6 46.1, Compound 7 48.6 mg/kg)

Row | Structure (SMILES) | Insulin levels at 0 min vs vehicle control group and HMS5552-40 mg/kg group [1, 8] | Insulin levels at 15 min vs vehicle control group [1, 8] | Insulin levels at 15 min vs vehicle control group [1, 9] | Metabolism in human intestinal S9 (in words) ([2]; HIS9) | Remaining of Test Compound (%) ([2]; time point 5 min) | Remaining of Test Compound (%) ([2]; time point 15 min) | Remaining of Test Compound (%) ([2]; time point 30 min) | Remaining of Test Compound (%) ([2]; time point 45 min) | Remaining of Test Compound (%) ([2]; time point 60 min) | Degradation in SIF (in words) [3] | Metabolism after intravenous injection (in words) [4] | Stability in SGF (in words) [5] | Insulin secretion and glucose-lowering effect as compared to HMS5552 (in words) [6] | AUC0-120min of blood glucose vs vehicle control group [6] | BG values after glucose treatment vs HMS5552-40 mg/kg group [6] | BG values after glucose treatment vs vehicle control group [6] | AUC0-120min of blood glucose vs corresponding groups of HMS5552 [6] | BG values at 0 min (pre-glucose) vs vehicle control group [6] | Insulin levels at 15 min vs corresponding groups of HMS5552 [1, 13] | also measured
1 | CC(C)C[C@@H](C(=O)Nc1ccn(C[C@@H](O)COC(=O)c2cccnc2)n1)N1CC(Oc2ccccc2Cl)=CC1=O [Compound 3] | significantly higher than the vehicle control group and HMS5552-40 mg/kg group at 0 min | significantly higher than the vehicle control group at 15 min | significantly higher than the vehicle control group at 15 min | well metabolized in human intestinal S9 | 0 | 0 | 0 | 0 | 0 | extensively degraded in SIF | metabolized very rapidly in rats by intravenous injection | stable in SGF for 24 hours | increased insulin secretion and greater glucose-lowering effect as compared to HMS5552 | significantly lower than the vehicle control group, with dose-response relationship | significantly lower than HMS5552-40 mg/kg group at 30 min, 60 min, and 120 min | significantly lower than the vehicle control group at 15 min, 30 min, 60 min, and 120 min | significantly lower than the corresponding groups of HMS5552 (P<0.01) | overall lower than the vehicle control group, with dose-response relationship | – | Insulin levels at 15 min vs corresponding groups of HMS5552 ([1]; middle dose (Compound 3 18.4 mg/kg)): significantly higher than the corresponding groups of HMS5552 at 15 min; Time within which completely metabolized and converted into parent drug HMS5552 ([2]; HIS9): ≤ 5 min; clearance ([4]; male SD rats, IV bolus 10 mg/kg, analyte prodrug): 290 mL/min/kg; Tmax ([4]; male SD rats, PO 30 mg/kg, analyte prodrug, read-out: Tmax (median)): 15 min; Average Recovery Rate (%) A→B [7, 10]: 52.9%; Average Recovery Rate (%) B→A [7, 10]: 87.1%; The average Apparent Permeability Papp A→B [7, 10]: 0.02977 10^−6 cm/s; Average Recovery Rate (%) A→B [7, 11]: 37.5%; Average Recovery Rate (%) B→A [7, 11]: 81.6%; The average Apparent Permeability Papp A→B [7, 11]: 0.03187 10^−6 cm/s; Average Recovery Rate (%) B→A [7, 12]: 82.2%; The average Apparent Permeability Papp A→B [7, 12]: 0.04322 10^−6 cm/s
2 | CC(C)C[C@@H](C(=O)Nc1ccn(C[C@@H](O)COC(=O)[C@H](C)N)n1)N1CC(Oc2ccccc2Cl)=CC1=O [Compound 6] | significantly higher than the vehicle control group and HMS5552-40 mg/kg group at 0 min | significantly higher than the vehicle control group at 15 min | – | – | – | – | – | – | – | – | – | – | increased insulin secretion and greater glucose-lowering effect as compared to HMS5552 | significantly lower than the vehicle control group, with dose-response relationship | significantly lower than HMS5552-40 mg/kg group at 15 min, 30 min, 60 min, and 120 min | – | significantly lower than the corresponding groups of HMS5552 (P<0.01) | overall lower than the vehicle control group, with dose-response relationship | significantly higher than the corresponding groups of HMS5552 at 15 min | –
3 | CC(C)C[C@@H](C(=O)Nc1ccn(C[C@@H](O)COC(=O)[C@@H](N)C(C)C)n1)N1CC(Oc2ccccc2Cl)=CC1=O [Compound 7] | significantly higher than the vehicle control group and HMS5552-40 mg/kg group at 0 min | significantly higher than the vehicle control group at 15 min | significantly higher than the vehicle control group at 15 min | well metabolized in human intestinal S9 | 30.7 | 18.8 | 7.2 | 3.9 | 2.7 | extensively degraded in SIF | metabolized very rapidly in rats by intravenous injection | stable in SGF for 24 hours | increased insulin secretion and greater glucose-lowering effect as compared to HMS5552 | significantly lower than the vehicle control group, with dose-response relationship | significantly lower than HMS5552-40 mg/kg group at 15 min, 30 min, 60 min, and 120 min | – | significantly lower than the corresponding groups of HMS5552 (P<0.01) | overall lower than the vehicle control group, with dose-response relationship | significantly higher than the corresponding groups of HMS5552 at 15 min | Remaining of Test Compound (%) ([2]; time point 0 min): 100%; Remaining of Test Compound (%) ([3]; time point 0 hr): 100.00%; Remaining of Test Compound (%) ([3]; time point 1 hr): 25.13%; Remaining of Test Compound (%) ([3]; time point 2 hr): 3.50%; Remaining of Test Compound (%) ([3]; time point 6 hr): 4.88%; Remaining of Test Compound (%) ([3]; time point 24 hr): 0.00%; Exposures (Cmax, Cmax ratio, AUC, AUC ratio) when administered orally vs parent drug (in words) ([4]; male, SD, po): comparable to the parent drug HIMS5552; Remaining of Test Compound (%) ([5]; time point 0 hr): 100.00%; Remaining of Test Compound (%) ([5]; time point 1 hr): 103.14%; Remaining of Test Compound (%) ([5]; time point 2 hr): 104.44%; Remaining of Test Compound (%) ([5]; time point 6 hr): 102.68%; Remaining of Test Compound (%) ([5]; time point 24 hr): 108.07%
4 | CC(C)C[C@@H](C(=O)Nc1ccn(C[C@@H](O)CO)n1)N1CC(Oc2ccccc2Cl)=CC1=O [HMS5552, (S)-2-[4-(2-chloro-phenoxy)-2-oxo-2,5-dihydro-pyrrol-1-yl]-4-methyl-pentanoic acid [1-((R)-2,3-dihydroxy-propyl)-1H-pyrazol-3-yl]-amide, reference compound] | – | – | – | – | – | – | – | – | – | – | – | – | – | significantly lower than the vehicle control group, with dose-response relationship | – | significantly lower than the vehicle control group at 30 min, 60 min and 120 min | – | overall lower than the vehicle control group, with dose-response relationship | – | Insulin levels vs vehicle control group ([1]; HMS5552 groups, 0 min and 15 min): slightly higher than the vehicle control group at 0 min and 15 min, without significant difference
